This note sets out measurements from patent publication US4279905A, “1-Benzoxepin-5 (2H)-one derivatives and pharmaceutical compositions” (Kali-Chemie Pharma GmbH, priority 1979, dated 1981).

One data set relates to gastric peristalsis. Kind of data set: Testing of the gastric peristalsis (gastric pressure, barium chloride-stimulated stomach of narcotized rats). The conditions noted are these: 20 mg/kg intraperitoneally, BaCl2 50 mg/kg/h i.v. infusion, compared with control value before compound; for Change in gastric pressure-wave amplitude: the values are: decrease in gastric amplitude; for change in vivo at 20 mg/kg: Rattus norvegicus, ip, read-out: Frequency Decrease in %. The data set is classed as in vivo. The source says: To determine the functioning of the gastric peristalsis, rats weighing about 200 g are narcotized by means of ketamine hydrochloride and xylazine. A catheter is introduced into the Vena jugularis of the narcotized rats and a tracheal catheter into the trachea. A stomach probe is inserted into their stomach and tied thereto. The probe is connected via a three-way cock with a Statham pressure imparting device (P 23 DB). The stomach is sealed off by a ligature at the pylorus and at the cardia. The stomach is filled with 3 ml of a 0.9% aqueous sodium chloride solution. The pressure waves produced by the stomach are continuously registered by a suitable recording device such by a Watanabe Multicorder (MC 641).
In conducting the test, a control value is obtained by inducing a stimulation of the stomach through a lengthy intravenous infusion of 50 mg/kg/h of bariumchloride and the amplitude and frequency of resultant pressure waves are measured. Subsequently, in order to determine the pharmacological effects, the compounds to be tested are dissolved in physiological sodium chloride solution or are suspended in Tylose MH 50 solution. The solutions or suspensions are then administered intraperitoneally to the rats in a dose of 20 mg/kg. The amplitudes and frequencies of the pressure wave-like movements of the stomach as they occur with the test solution and after administration of the compound to be tested, are compared.

The nature of data set [1]: Determination of acute toxicity (seven-day, single intraperitoneal dose). The conditions noted are these: in vivo, ip, fasting white NMRI mouse, single dose i.p., probit analysis, read-out: LP50 i.p. The protocol: The acute seven-day toxicity is determined by intraperitoneal administration of a single dose of the respective compound to a fasting white NMRI mouse. The LD50 -values are calculated via electronic data processing by a probit analysis as described in the book "Grundbegriffe der Biometrie" (Basic Biometrical Definitions) by L. Cavalli-Sforza, page 153 et seq., published by Gustav Fischer Verlag, Stuttgart, 1964.

For `O=C1C=C(NCCc2ccccc2)COc2ccccc21` [Compound F, 3-phenethylamino-1-benzoxepin-5(2H)-one], in the data set with gastric peristalsis, the Change in gastric pressure-wave amplitude was 29% and the change in vivo at 20 mg/kg was -7%.

In the case of `COCCNC1=CC(=O)c2ccccc2OC1` [I, 3-(β-methoxyethylamino)-1-benzoxepin-5(2H)-one], in the data set with gastric peristalsis, the Change in gastric pressure-wave amplitude was found to be 46% and the change in vivo at 20 mg/kg was found to be 11%.

In the case of `CNC1=CC(=O)c2ccc(C(C)(C)C)cc2OC1` [M, 3-methylamino-8-tert.-butyl-1-benzoxepin-5(2H)-one], in the data set with gastric peristalsis, the Change in gastric pressure-wave amplitude was 72% and the change in vivo at 20 mg/kg was 10%.

Consider `O=C1C=C(N2CCN(Cc3ccccc3)CC2)COc2ccccc21` [G, 3-(N-benzylpiperazino)-1-benzoxepin-5(2H)-one], for which, in the data set on gastric peristalsis, the Change in gastric pressure-wave amplitude is 31% and the change in vivo at 20 mg/kg turned out to be 10%. For the same compound, in data set [1], the LD50 at 168 h was 634 mg/kg.

Turning to `CC(C)NC1=CC(=O)c2ccccc2OC1` [C, 3-isopropylamino-1-benzoxepin-5(2H)-one], in the data set on gastric peristalsis, the Change in gastric pressure-wave amplitude came to 32% and the change in vivo at 20 mg/kg was -2%. Also, the LD50 at 168 h in data set [1] was determined as 544 mg/kg.

In the case of `CNC1=CC(=O)c2ccc(Cl)cc2OC1` [B, 3-methylamino-8-chloro-1-benzoxepin-5(2H)-one], in the data set on gastric peristalsis, the Change in gastric pressure-wave amplitude was 58% and the change in vivo at 20 mg/kg was -16%. Further, the LD50 at 168 h in data set [1] was 450 mg/kg.

As to `CNC1=CC(=O)c2cc(C)ccc2OC1` [L, 3-methylamino-7-methyl-1-benzoxepin-5(2H)-one], in the data set on gastric peristalsis, the Change in gastric pressure-wave amplitude worked out at 75% and the change in vivo at 20 mg/kg was found to be 15%.

As to `CNC1=CC(=O)c2cc(F)ccc2OC1` [O, 3-methylamino-7-fluoro-1-benzoxepin-5(2H)-one], in the data set on gastric peristalsis, the Change in gastric pressure-wave amplitude was 37% and the change in vivo at 20 mg/kg turned out to be 1%.

As to `NC1=CC(=O)c2ccccc2OC1` [D, 3-amino-1-benzoxepin-5(2H)-one], in the data set with gastric peristalsis, the Change in gastric pressure-wave amplitude worked out at 45% and the change in vivo at 20 mg/kg is -12%. The LD50 at 168 h in data set [1] was 544 mg/kg.

With `CNC1=CC(=O)c2cc(Cl)ccc2OC1` [N, 3-methylamino-7-chloro-1-benzoxepin-5(2H)-one], in the data set with gastric peristalsis, the Change in gastric pressure-wave amplitude amounted to 46% and the change in vivo at 20 mg/kg is -1%.

`CNC1=CC(=O)c2ccccc2OC1` [A, 3-methylamino-1-benzoxepin-5(2H)-one]: in the data set with gastric peristalsis, the Change in gastric pressure-wave amplitude was found to be 56% and the change in vivo at 20 mg/kg is -18%. Moreover, the LD50 at 168 h in data set [1] came to 664 mg/kg.

`CNC1=CC(=O)c2ccc(C)cc2OC1` [K, 3-methylamino-8-methyl-1-benzoxepin-5(2H)-one]: in the data set with gastric peristalsis, the Change in gastric pressure-wave amplitude amounted to 55% and the change in vivo at 20 mg/kg turned out to be 4%.

`O=C1C=C(N2CCOCC2)COc2ccccc21` [H, 3-morpholino-1-benzoxepin-5(2H)-one]: in the data set on gastric peristalsis, the Change in gastric pressure-wave amplitude is 12% and the change in vivo at 20 mg/kg turned out to be 17%. In data set [1], the LD50 at 168 h is 650 mg/kg.

Regarding `CCCCNC1=CC(=O)c2ccccc2OC1` [E, 3-(n-butylamino)-1-benzoxepin-5(2H)-one], in the data set on gastric peristalsis, the Change in gastric pressure-wave amplitude worked out at 26% and the change in vivo at 20 mg/kg worked out at 36%. Also, in data set [1], the LD50 at 168 h is 442 mg/kg.
